Laboratory results taken from US20230167118A1, “DEGRADATION OF BRUTON'S TYROSINE KINASE (BTK) BY CONJUGATION OF BTK INIDBITORS WITH E3 LIGASE LIGAND AND METHODS OF USE” (BEIGENE, LTD., priority 2020, published 2023).

Experiments:
BTK = target: T1, BTK (Homo sapiens, UniProt Q06187); assay: Cell Degradation: BTK degradation in TMD-8 cells, HTRF assay; assay type: cell-based; details: 6 h treatment, IC50 (DC50) of BTK degradation
T1 construct: High control=Cell group with added DMSO and without compound, indicating microplate readings without BTK degradation; endogenous in cells; host or cells: TMD-8 cells
Summary of the method: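 BTK levels read by HTRF (665 vs 620 nm) in lysates of TMD-8 cells after 6 h compound exposure (eight doses, 6-fold steps, 0.2% DMSO). Percent degradation relative to controls; four-parameter curve fitting gave DC50, with Dmax the top degradation.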

HEK-293 cells = assay: HEK-293 Cytotoxicity Assay (CellTiter-Glo); assay type: cell-based; details: Homo sapiens, HEK293, 72 h incubation, CellTiter-Glo luminescence
Summary of the method: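 Four-parameter fit of % inhibition gives IC50, from CellTiter-Glo luminescent viability read-out. Cells exposed for 72 h to an 8-point, 4-fold series at 0.2% DMSO.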

T1 sequence (Q06187 whole entry): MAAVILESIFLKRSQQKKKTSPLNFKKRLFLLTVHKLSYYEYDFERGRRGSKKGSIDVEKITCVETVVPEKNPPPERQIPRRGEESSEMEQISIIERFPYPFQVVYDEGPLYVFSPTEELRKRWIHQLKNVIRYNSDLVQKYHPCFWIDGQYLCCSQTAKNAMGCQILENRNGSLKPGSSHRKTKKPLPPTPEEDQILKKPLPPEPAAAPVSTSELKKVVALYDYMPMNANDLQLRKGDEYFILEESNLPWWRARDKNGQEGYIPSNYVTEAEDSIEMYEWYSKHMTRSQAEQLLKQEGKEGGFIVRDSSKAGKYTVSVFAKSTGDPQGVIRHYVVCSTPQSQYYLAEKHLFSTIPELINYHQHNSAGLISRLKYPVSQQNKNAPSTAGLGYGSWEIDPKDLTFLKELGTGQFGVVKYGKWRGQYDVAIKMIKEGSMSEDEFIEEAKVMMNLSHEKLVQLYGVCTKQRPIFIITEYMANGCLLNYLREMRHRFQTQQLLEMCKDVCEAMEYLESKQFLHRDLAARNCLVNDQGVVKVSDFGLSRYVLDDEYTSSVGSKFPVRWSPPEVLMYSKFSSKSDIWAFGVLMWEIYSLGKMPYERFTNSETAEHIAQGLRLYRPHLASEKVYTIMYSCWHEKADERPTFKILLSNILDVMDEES

| SMILES | DC50 (BTK) [nM] | IC50 (HEK-293 cells) [nM] |
| --- | --- | --- |
| Cc1cc(N2CCC(CN3CCN(c4ccc(-c5cc6c(-c7ccc([C@@H](C)NC(=O)c8nc(C(C)(C)C)no8)c(F)c7)ncnc6[nH]5)cn4)CC3)CC2)ccc1N1CCC(=O)NC1=O [Example 52, (R)-3-(tert-butyl)-N-(1-(4-(6-(6-(4-((1-(4-(2,4-dioxotetrahydropyrimidin-1(2H)-yl)-3-methylphenyl)piperidin-4-yl)methyl)piperazin-1-yl)pyridin-3-yl)-7H-pyrrolo[2,3-d]pyrimidin-4-yl)-2-fluorophenyl)ethyl)-1,2,4-oxadiazole-5-carboxamide] | 1.7 | > 10000 |
| Cc1cc(-c2ncnc3[nH]c(-c4ccc(N5CCN(CCC6CCN(c7ccc([C@H]8CCC(=O)NC8=O)cc7)CC6)CC5)nc4)cc23)ccc1[C@@H](C)NC(=O)c1nc(C(C)(C)C)no1 [Example 53, 3-(tert-butyl)-N-((R)-1-(4-(6-(6-(4-(2-(1-(4-((R)-2,6-dioxopiperidin-3-yl)phenyl)piperidin-4-yl)ethyl)piperazin-1-yl)pyridin-3-yl)-7H-pyrrolo[2,3-d]pyrimidin-4-yl)-2-methylphenyl)ethyl)-1,2,4-oxadiazole-5-carboxamide] | > 2000 | > 10000 |
| Cc1cc(-c2ncnc3[nH]c(-c4ccc(N5CCN(CCC6CCN(c7ccc([C@@H]8CCC(=O)NC8=O)cc7)CC6)CC5)nc4)cc23)ccc1[C@@H](C)NC(=O)c1nc(C(C)(C)C)no1 [Example 54, 3-(tert-butyl)-N-((R)-1-(4-(6-(6-(4-(2-(1-(4-((S)-2,6-dioxopiperidin-3-yl)phenyl)piperidin-4-yl)ethyl)piperazin-1-yl)pyridin-3-yl)-7H-pyrrolo[2,3-d]pyrimidin-4-yl)-2-methylphenyl)ethyl)-1,2,4-oxadiazole-5-carboxamide] | 3.7 | > 10000 |
| Cc1cc(-c2ncnc3[nH]c(-c4ccc(N5CCN(CC6CCN(c7ccc(C8CCC(=O)NC8=O)cc7)CC6)CC5)cc4)cc23)ccc1[C@@H](C)NC(=O)c1nc(C(C)(C)C)no1 (stereo partly drawn) [Example 55, (R)-3-(tert-butyl)-N-(1-(4-(6-(4-(4-((1-(4-(2,6-dioxopiperidin-3-yl)phenyl)piperidin-4-yl)methyl)piperazin-1-yl)phenyl)-7H-pyrrolo[2,3-d]pyrimidin-4-yl)-2-methylphenyl)ethyl)-1,2,4-oxadiazole-5-carboxamide] | 3.2 | > 10000 |
| Cc1cc(-c2ncnc3[nH]c(-c4ccc(N5CCN(CC6CCN(c7ccc(N8CCC(=O)NC8=O)c(C)c7)CC6)CC5)nc4)cc23)ccc1[C@@H](C)NC(=O)c1nc(C(C)(C)C)no1 [Example 58, (R)-3-(tert-butyl)-N-(1-(4-(6-(6-(4-((1-(4-(2,4-dioxotetrahydropyrimidin-1(2H)-yl)-3-methylphenyl)piperidin-4-yl)methyl)piperazin-1-yl)pyridin-3-yl)-7H-pyrrolo[2,3-d]pyrimidin-4-yl)-2-methylphenyl)ethyl)-1,2,4-oxadiazole-5-carboxamide] | 1.5 | > 10000 |

The next molecules have a lower DC50 (BTK) than those just listed; values first:

| DC50 (BTK) [nM] | SMILES | IC50 (HEK-293 cells) [nM] |
| --- | --- | --- |
| 0.48 | Cc1cc(-c2ncnc3[nH]c(-c4c(C)nn(C5CCN(CC6CCN(c7ccc(N8CCC(=O)NC8=O)cc7)CC6)CC5)c4C)cc23)ccc1[C@@H](C)NC(=O)c1nc(C(C)(C)C)no1 [Example 60, (R)-3-(tert-butyl)-N-(1-(4-(6-(1-(1-((1-(4-(2,4-dioxotetrahydropyrimidin-1(2H)-yl)phenyl)piperidin-4-yl)methyl)piperidin-4-yl)-3,5-dimethyl-1H-pyrazol-4-yl)-7H-pyrrolo[2,3-d]pyrimidin-4-yl)-2-methylphenyl)ethyl)-1,2,4-oxadiazole-5-carboxamide] | > 10000 |
| 0.52 | Cc1cc(-c2ncnc3[nH]c(-c4c(C)nn(C5CCN(CC6CCN(c7ccc(N8CCC(=O)NC8=O)c(C)c7)CC6)CC5)c4C)cc23)ccc1[C@@H](C)NC(=O)c1nc(C(C)(C)C)no1 [Example 61, (R)-3-(tert-butyl)-N-(1-(4-(6-(1-(1-((1-(4-(2,4-dioxotetrahydropyrimidin-1(2H)-yl)-3-methylphenyl)piperidin-4-yl)methyl)piperidin-4-yl)-3,5-dimethyl-1H-pyrazol-4-yl)-7H-pyrrolo[2,3-d]pyrimidin-4-yl)-2-methylphenyl)ethyl)-1,2,4-oxadiazole-5-carboxamide] | 9000 |
| 0.53 | Cc1cc(-c2ncnc3[nH]c(-c4c(C)nn(C5CCN(CC6CCN(c7ccc(N8CCC(=O)NC8=O)cc7)CC6)CC5)c4C)cc23)ccc1[C@@H](C)NC(=O)c1noc(C(C)(C)C)n1 [Example 62, (R)-5-(tert-butyl)-N-(1-(4-(6-(1-(1-((1-(4-(2,4-dioxotetrahydropyrimidin-1(2H)-yl)phenyl)piperidin-4-yl)methyl)piperidin-4-yl)-3,5-dimethyl-1H-pyrazol-4-yl)-7H-pyrrolo[2,3-d]pyrimidin-4-yl)-2-methylphenyl)ethyl)-1,2,4-oxadiazole-3-carboxamide] | > 10000 |
| 0.6 | Cc1cc(-c2ncnc3[nH]c(-c4ccc(N5CCN(CC6CCN(c7ccc(N8CCC(=O)NC8=O)c(C)c7)CC6)CC5)nc4)nc23)ccc1[C@@H](C)NC(=O)c1nc(C(C)(C)C)no1 [Example 65, (R)-3-(tert-butyl)-N-(1-(4-(8-(6-(4-((1-(4-(2,4-dioxotetrahydropyrimidin-1(2H)-yl)-3-methylphenyl)piperidin-4-yl)methyl)piperazin-1-yl)pyridin-3-yl)-9H-purin-6-yl)-2-methylphenyl)ethyl)-1,2,4-oxadiazole-5-carboxamide] | > 10000 |
| 0.69 | Cc1cc(-c2ncnc3[nH]c(-c4ccc(N5CCN(CC6CCN(c7ccc(N8CCC(=O)NC8=O)c(C)c7)CC6)CC5)cc4)nc23)ccc1[C@@H](C)NC(=O)c1nc(C(C)(C)C)no1 [Example 67, (R)-3-(tert-butyl)-N-(1-(4-(8-(4-(4-((1-(4-(2,4-dioxotetrahydropyrimidin-1(2H)-yl)-3-methylphenyl)piperidin-4-yl)methyl)piperazin-1-yl)phenyl)-9H-purin-6-yl)-2-methylphenyl)ethyl)-1,2,4-oxadiazole-5-carboxamide] | > 10000 |
| 1.08 | Cc1cc(-c2ncnc3[nH]c(-c4ccc(N5CCN(CC6CCN(c7ccc(N8CCC(=O)NC8=O)cc7)CC6)CC5)cc4)nc23)ccc1[C@@H](C)NC(=O)c1noc(C(C)(C)C)n1 [Example 68, (R)-5-(tert-butyl)-N-(1-(4-(8-(4-(4-((1-(4-(2,4-dioxotetrahydropyrimidin-1(2H)-yl)phenyl)piperidin-4-yl)methyl)piperazin-1-yl)phenyl)-9H-purin-6-yl)-2-methylphenyl)ethyl)-1,2,4-oxadiazole-3-carboxamide] | > 10000 |
| 0.21 | Cc1cc(-c2ncnc3[nH]c(-c4ccc(N5CCN(CC6CCN(c7ccc(N8CCC(=O)NC8=O)c(C)c7)CC6)CC5)nc4)nc23)ccc1[C@@H](C)NC(=O)c1noc(C(C)(C)C)n1 [Example 71, (R)-5-(tert-butyl)-N-(1-(4-(8-(6-(4-((1-(4-(2,4-dioxotetrahydropyrimidin-1(2H)-yl)-3-methylphenyl)piperidin-4-yl)methyl)piperazin-1-yl)pyridin-3-yl)-9H-purin-6-yl)-2-methylphenyl)ethyl)-1,2,4-oxadiazole-3-carboxamide] | > 10000 |
